Results from ChEMBL document CHEMBL2074288 (Eur J Pharmacol, 2004).

What was measured:
[1] = target: T1, Solute carrier family 22 member 2 (Homo sapiens, UniProt O15244); assay: TP_TRANSPORTER: inhibition of TEA uptake in OCT2 expressing oocytes
T1 sequence (O15244 whole entry): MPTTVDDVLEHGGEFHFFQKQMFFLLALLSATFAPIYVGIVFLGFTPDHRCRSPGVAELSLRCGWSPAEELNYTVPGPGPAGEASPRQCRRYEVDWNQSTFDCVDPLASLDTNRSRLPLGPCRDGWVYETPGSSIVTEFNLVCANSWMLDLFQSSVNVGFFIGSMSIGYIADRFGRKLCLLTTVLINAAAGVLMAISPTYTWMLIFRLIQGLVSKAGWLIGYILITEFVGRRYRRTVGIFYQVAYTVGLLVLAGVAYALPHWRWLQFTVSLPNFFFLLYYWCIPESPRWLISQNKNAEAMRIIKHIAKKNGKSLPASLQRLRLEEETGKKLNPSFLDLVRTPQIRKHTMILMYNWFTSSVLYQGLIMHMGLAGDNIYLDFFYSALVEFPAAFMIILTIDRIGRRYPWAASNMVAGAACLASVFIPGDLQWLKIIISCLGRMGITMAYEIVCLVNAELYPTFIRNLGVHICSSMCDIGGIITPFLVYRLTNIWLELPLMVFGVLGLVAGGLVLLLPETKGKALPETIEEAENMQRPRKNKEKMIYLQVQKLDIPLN

[2] = target: T2, Organic anion transporter 3 (Homo sapiens, UniProt Q8TCC7); assay: TP_TRANSPORTER: inhibition of E1S uptake in OAT3 expressing oocytes
T2 sequence (Q8TCC7 whole entry): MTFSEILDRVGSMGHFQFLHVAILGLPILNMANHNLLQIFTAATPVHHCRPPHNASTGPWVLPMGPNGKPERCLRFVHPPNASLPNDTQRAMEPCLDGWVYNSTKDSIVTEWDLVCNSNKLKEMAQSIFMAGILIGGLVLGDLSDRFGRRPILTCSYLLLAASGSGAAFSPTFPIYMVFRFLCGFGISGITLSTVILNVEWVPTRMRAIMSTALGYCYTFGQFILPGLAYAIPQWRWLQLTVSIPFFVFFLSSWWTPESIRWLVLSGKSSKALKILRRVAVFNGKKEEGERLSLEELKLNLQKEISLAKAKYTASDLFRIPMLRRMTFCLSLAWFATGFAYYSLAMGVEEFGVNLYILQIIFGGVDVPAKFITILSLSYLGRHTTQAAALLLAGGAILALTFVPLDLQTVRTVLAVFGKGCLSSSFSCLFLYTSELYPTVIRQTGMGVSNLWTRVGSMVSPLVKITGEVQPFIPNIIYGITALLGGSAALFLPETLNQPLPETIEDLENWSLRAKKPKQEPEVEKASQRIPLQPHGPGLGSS

Structure (SMILES) | Ki [1] | Ki [2]
CN/C(=N/CCSCc1nc[nH]c1C)NC#N [CIMETIDINE] | 57 µM | 53 µM
NC(N)=Nc1nc(CSCCC(N)=NS(N)(=O)=O)cs1 [FAMOTIDINE] | 1800 µM | 300 µM
